Laboratory results published in patent US4868114A, “Method for elevating glutathione levels” (Regents of the University of Minnesota, priority 1989, dated 1989).

Columns and labels:
[1] = test system: acetaminophen-induced hepatotoxicity; experiment: Protection against acetaminophen-induced hepatotoxicity in mice; assay type: in vivo; details: prodrug 2.45 mmole/kg ip 30 min later; for Survival (48 hr) (%) / Survival (48 hr) (Number): LD90 acetaminophen 750 mg/kg ip; for Survival (48 hr) (Number): survivors/total; for Number of Animals with necrosis 0 / Number of Animals with necrosis 1+ / Number of Animals with necrosis 2+ / Number of Animals with necrosis 3+ / Number of Animals with necrosis 4+: LD90 acetaminophen ip, liver histology, Mitchell rating
Experimental: Compounds 1a through 1h were evaluated in a mouse model for their ability to protect against the hepatotoxic action of acetaminophen. The experimental protocol involved the administration of an LD90 dose of acetaminophen, followed 30 min. later by the prodrug as potential protective agent. Toxicity was assessed based on overall survival data at 48 hrs, as well as on histological criteria of hepatocellular damage using the rating system of J. R. Mitchell et al., J. Pharmacol. Exp. Ther., 187, 185 (1973).
The prodrugs of L-cysteine were examined for their ability to protect against acetaminophen-induced hepatotoxicity in mice essentially as described by H. T. Nagasawa et al., J. Med. Chem., 25, 489 (1982). Male Swiss-Webster mice (19 to 31 g) were fasted overnight but given free access to water. An LD90 dose of acetaminophen (750 mg/kg, 4.97 mmol/kg, ip) was then administered, followed 30 min later by a 2.45 mmole/kg ip dose of the L-cysteine prodrug. All injection solutions were freshly prepared in sterile water, except where solubility problems required the use of sterile 0.1N aqueous NaHCO3 or a slurry of the prodrug in 2% aqueous carboxymethylcellulose (CMC). The animals were then given food and water ad libitum and were observed over a 48-hr period.
Represenative sections from the central lobe of the liver were obtained from those animals found dead at 12, 24 and 48 hr. Survivors at 48 hr were sacrificed by cervical dislocation and the liver sections were similarly excised and sectioned. All specimens were fixed on 10% buffered formalin and in Form-a-Less (PMP, Inc., San Diego, CA) and stained with hematoxylin and eosin. The extent of hepatic necrosis was evaluated histologically by an investigator who had no knowledge of the experimental protocols or sample identity.

rat hepatocytes [2] = experiment: Inhibitory effect of buthionine sulfoximine (BSO) on GSH elevation elicited by L-cysteine prodrugs in rat hepatocytes; assay type: cell-based; details: for [GSH] ± SE: rat hepatocytes pre-exposed to BSO 0.2 mM, 4 hr; for [GSH] Rel. to Controls: rat hepatocytes, BSO 0.2 mM, 240 min
Experimental: (§1) Rat hepatocytes were isolated following the methods of P. O. Seglen, Exper. […] After final plating, the hepatocytes were maintained in culture for 24 hr prior to use. Only primary cultures were used throughout the studies. The hepatocytes were incubated with the cysteine prodrugs for a 4-hr period, and after removal of media by aspiration, the cells were rinsed with cold phosphate-buffered saline and deproteinized with 5% sulfosalicylic acid. […] For the inhibition studies with BSO, the cells were pre-exposed to BSO (0.20 mM) before treatment with the L-cysteine prodrugs.

rat hepatocytes [3] = experiment: Stimulation of glutathione (GSH) biosynthesis in isolated rat hepatocytes by L-cysteine prodrugs; assay type: cell-based; details: for [GSH] ± SE: control 35.4 ± 0.78
Experimental: as §1

[4] = test system: heptatotoxic dosages of acetaminophen; details: previous studies (Nagasawa 1984; Meister US 4,335,210); cited from earlier work
[5] = Hepatocyte, rat hepatocytes, prodrug 1.0 mM, 4 hr incubation, read-out: [GSH] Rel. to Controls
[6] = rat hepatocytes, prodrug 1.0 mM, 4 hr incubation

SMILES | Survival (48 hr) (%) [1] [%] | Survival (48 hr) (Number) [1] | Number of Animals with necrosis 0 [1] | Number of Animals with necrosis 1+ [1] | Number of Animals with necrosis 2+ [1] | Number of Animals with necrosis 3+ [1] | Number of Animals with necrosis 4+ [1] | [GSH] ± SE (rat hepatocytes [2]; prodrug 1.0 mM) [nmol/10^6 cells] | [GSH] Rel. to Controls (rat hepatocytes [2]; prodrug 1.0 mM) | fold induction at 1000 µM (rat hepatocytes [3]; [5]) | [GSH] ± SE (rat hepatocytes [3]; [6]) [nmol/10^6 cells] | protection of mice from hepatotoxic dosages of acetaminophen [4] | [GSH] ± SE (rat hepatocytes [2]; 2.5 mM) [nmol/10^6 cells] | [GSH] Rel. to Controls (rat hepatocytes [2]; 2.5 mM) | fold induction at 2500 µM (rat hepatocytes [3]; Rattus norvegicus, Hepatocyte, 4 h, read-out: [GSH] Rel. to Controls) | [GSH] ± SE (rat hepatocytes [3]; rat hepatocytes, 2.5 mM, 4 hr incubation) [nmol/10^6 cells] | raised GSH levels by (rat hepatocytes [3]; rat hepatocytes, 2.5 times the concentration of the thiazolidine prodrugs) [%] | [GSH] Rel. to Controls (rat hepatocytes [3]; [6])
O=C(O)[C@@H]1CSC([C@H](O)[C@@H](O)[C@H](O)CO)N1 (stereo partly drawn) [XylCys, 2(R,S)-D-xylo-1',2',3',4'-Tetrahydroxybutylthiazolidine-4(R)-carboxylic Acid] | 60 | 6/10 | 3 | 2 | 0 | 0 | 5 | 22.6 ± 1.84 | 0.8 | 1.6 | 58.3 ± 0.99 | – | – | – | – | – | – | –
O=C(O)[C@@H]1CSC([C@@H](O)[C@@H](O)[C@H](O)CO)N1 (stereo partly drawn) [LyxCys, 2(R,S)-D-lyxo-1',2',3',4'-Tetrahydroxybutylthiazolidine-4(R)-carboxylic Acid] | 30 | 3/10 | 0 | 0 | 0 | 1 | 9 | 22.4 ± 1.98 | 0.6 | 1.3 | 45.9 ± 1.95 | – | – | – | – | – | – | –
CCCC1N[C@H](C(=O)O)CS1 (stereo partly drawn) [2(R,S)-n-propyl-] | – | – | – | – | – | – | – | – | – | – | – | can protect mice | – | – | – | – | – | –
O=C(O)[C@@H]1CSC([C@@H](O)[C@H](O)[C@H](O)CO)N1 (mixture of isomers) [AraCys, 2(R,S)-D-arabino-1',2',3',4'-Tetrahydroxybutylthiazolidine-4(R)-carboxylic Acid] | 40 | 4/10 | 0 | 1 | 2 | 0 | 7 | 19.5 ± 3.75 | 0.6 | 1.2 | 42.9 ± 2.17 | – | – | – | – | – | – | –
CC(=O)N[C@@H](CS)C(=O)O [NAC, N-Acetyl-L-cysteine, reference compound] | 94 | 17/18 | 13 | 3 | 0 | 1 | 1 | – | – | – | – | can protect mice | 25.5 ± 1.59 | 0.7 | 1.3 | 45.8 ± 1.27 | 30 | –
CCCCCC1N[C@H](C(=O)O)CS1 (stereo partly drawn) [2(R,S)-n-pentyl] | – | – | – | – | – | – | – | – | – | – | – | can protect mice | – | – | – | – | – | –
O=C(O)[C@@H]1CSC([C@H](O)CO)N1 (stereo partly drawn) [GlycCys, 2(R,S)-D-glycero-1',2'-Dihydroxyethylthiazolidine-4(R)carboxylic Acid] | 30 | 3/10 | 0 | 0 | 1 | 2 | 7 | 18.3 ± 6.41 | 0.5 | 1.3 | 46.1 ± 1.10 | – | – | – | – | – | – | –
O=C1N[C@H](C(=O)O)CS1 [L-2-oxothiazolidine-4-carboxylate] | – | – | – | – | – | – | – | – | – | – | – | can protect mice | – | – | – | – | – | –
O=C(O)[C@@H]1CSC([C@@H](O)[C@@H](O)[C@H](O)[C@H](O)CO)N1 (stereo partly drawn) [ManCys, 2(R,S)-D-manno-1',2',3',4',5'-Pentahydroxypentylthiazolidine-4(R)-carboxylic Acid] | 40 | 4/10 | 3 | 0 | 1 | 0 | 6 | 18.9 ± 1.87 | 0.5 | 1.6 | 57.8 ± 0.87 | – | – | – | – | – | – | –
O=C(O)[C@@H]1CSC([C@H](O)[C@@H](O)[C@H](O)[C@H](O)CO)N1 (stereo partly drawn) [GlcCys, 2(R,S)-D-gluco-1',2',3',4',5'-Pentahydroxypentylthiazolidine-4(R)-carboxylic Acid] | 30 | 3/10 | 0 | 2 | 0 | 1 | 7 | 25.4 ± 0.99 | 0.7 | 2.1 | 75.2 ± 2.15 | – | – | – | – | – | – | over twice
O=C(O)[C@@H]1CSC([C@H](O)[C@@H](O)[C@@H](O)[C@H](O)CO)N1 (stereo partly drawn) [GalCys, 2(R,S)-D-galacto-1',2',3',4',5'-Pentahydroxypentylthiazolidine-4(R)-carboxylic Acid] | 60 | 6/10 | 1 | 3 | 2 | 0 | 4 | 23.2 ± 2.56 | 0.7 | 1.6 | 58.0 ± 2.00 | – | – | – | – | – | – | –
CC1N[C@H](C(=O)O)CS1 (stereo partly drawn) [2(R,S)-methylthiazolidine-4R-carboxylate] | – | – | – | – | – | – | – | – | – | – | – | can protect mice | – | – | – | – | – | –
O=C(O)[C@@H]1CSC([C@H](O)[C@H](O)[C@H](O)CO)N1 (stereo partly drawn) [RibCys, 2(R,S)-D-ribo-1',2',3',4'-Tetrahydroxybutylthiazolidine-4(R)-carboxylic Acid] | 100 | 12/12 | 4 | 2 | 6 | 0 | 0 | 16.2 ± 3.60 | 0.5 | 1.7 | 61.2 ± 1.52 | – | – | – | – | – | – | –
